One experiment concerns Ih channel. As to the kind of experiment: Ih channel inhibition, statement without method.
Experiment [1] has as its system sleep-wake organisation in the rat. Description: Effect of Ih channel inhibition on sleep-wake organisation in rats (ACSO, EEG/EMG/movement). In kind it is in vivo. Here is the method: Methods: Sleep-wake organization was evaluated in instrumented male rats held on a 12:12 light-dark cycle. Classification of sleep-wake states was measured using an automated system (ACSO, Automatic Classification of Sleep Organization)^[i,ii] that records and processes EEG (cortical), EMG (neck muscle) and movement signals. Subjects were assigned to placebo, Org 34167 or ivabradine treatment groups and signals were recorded on two successive days. The first recording session provided a baseline recording following treatment with placebo only. This baseline day was used to extract a sleep classification algorithm for each individual subject. On the second day recording was started immediately after administration of placebo, Org 34167 (i.p.) or ivabradine (s.c.). Treatments were administered 2.5-3.0 h after lights-on. Data analysis and statistics: EEG, EMG and movement signals were used to classify every 2 second epoch into 6 different sleep stages using the algorithm derived for each individual subject from the baseline day recording. Six sleep-wake states were discriminated—Active waking (AW), Passive waking (PW), Light sleep (LS), Deep sleep (DS), Intermediate sleep (IS) and Rapid Eye Movement sleep (REM). Subsets of the six sleep-wake states were also combined to give Waking (PW and AW), Sleep (IS, REM, LS and DS) and NREM (LS and DS). For each treatment group, the median percentage of time spent in each sleep or waking state were calculated in 3 hour time intervals after drug injection. Significance was calculated by means of the two-sided rank sum test (Mann-Whitney test; P<0.025).

A further experiment has as its target T1, hHCN1 (Homo sapiens, UniProt O60741).
T1 construct: expressed in transfected cells; host or cells: HEK cells, clone HEK.hHCN1.2H10
T1 sequence (O60741 1-890): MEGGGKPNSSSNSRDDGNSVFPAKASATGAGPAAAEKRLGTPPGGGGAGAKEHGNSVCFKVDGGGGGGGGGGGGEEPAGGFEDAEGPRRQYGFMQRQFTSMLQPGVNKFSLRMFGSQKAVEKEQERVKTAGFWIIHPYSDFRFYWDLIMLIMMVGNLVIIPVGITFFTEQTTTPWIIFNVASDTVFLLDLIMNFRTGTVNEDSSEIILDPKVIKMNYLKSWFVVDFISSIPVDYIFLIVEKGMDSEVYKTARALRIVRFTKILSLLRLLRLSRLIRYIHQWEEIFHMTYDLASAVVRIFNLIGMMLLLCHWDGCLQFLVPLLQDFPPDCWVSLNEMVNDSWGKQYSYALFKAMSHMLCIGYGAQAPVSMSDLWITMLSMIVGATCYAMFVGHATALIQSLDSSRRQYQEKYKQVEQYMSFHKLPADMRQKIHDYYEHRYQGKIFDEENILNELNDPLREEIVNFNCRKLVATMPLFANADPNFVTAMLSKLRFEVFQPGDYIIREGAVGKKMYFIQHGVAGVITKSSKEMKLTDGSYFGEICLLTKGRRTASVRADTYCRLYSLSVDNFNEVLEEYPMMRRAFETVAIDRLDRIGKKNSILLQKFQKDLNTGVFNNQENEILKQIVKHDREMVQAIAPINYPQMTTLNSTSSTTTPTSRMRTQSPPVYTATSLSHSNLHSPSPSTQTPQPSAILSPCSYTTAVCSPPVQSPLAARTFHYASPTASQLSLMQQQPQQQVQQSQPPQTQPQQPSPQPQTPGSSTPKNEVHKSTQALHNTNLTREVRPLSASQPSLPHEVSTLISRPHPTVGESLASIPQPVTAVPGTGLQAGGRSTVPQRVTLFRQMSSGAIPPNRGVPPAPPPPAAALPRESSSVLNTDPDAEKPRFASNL
Description: Determination of Ih channel inhibition, time-dependent current in HEK.hHCN1.2H10 cells. The class given is cell-based. The settings on record: holding potential −40 mV. Here is the method: Methods: HEK.hHCN1.2H10 cells growing in culture were dissociated using CDS to lift the cells. They were suspended in high K external solution and used in the assay at a density of 2×10^6 cells.ml^−1. Two separate runs were performed with voltage steps to −80 mV and […] for 1 s; the holding potential in both cases was −40 mV. The amplitude of the time-dependent current (assumed to be all hHCN1) was measured as the difference between the current recorded immediately after the capacity transient on stepping to the test voltage and the current measured after it had reached a steady state amplitude (PeakAmp metric). The amount of inhibition was assessed by calculating the ratio of Post Compound PeakAmp/Pre Compound PeakAmp. Thus a ratio of 1 would indicate no inhibition and 0 would indicate 100% inhibition. Compounds were tested at concentrations between 0.152 μM and 333.3 μM, and a dose-response curve constructed. The IC50 value was obtained (the concentration causing half maximal inhibition) and the pIC50 calculated (the negative logarithm of the molar concentration causing half-maximal inhibition).

Setting [2] is: 0.3 mg/kg i.p., 0-3 h, lights on.
The mark [3] stands for this setting: 0.3 mg/kg i.p., 3-6 h, lights on.
Setting [4] is: 0.3 mg/kg i.p., 6-9 h, lights on.
[5] abbreviates: 0.3 mg/kg i.p., 9-12 h, lights off.
Setting [6] is: 1 mg/kg i.p., 9-12 h, lights off.
[7] abbreviates: 5 mg/kg s.c., 9-12 h, lights off.
Where [8] appears, read: 15 mg/kg s.c., 0-3 h, lights on.
Where [9] appears, read: 15 mg/kg s.c., 3-6 h, lights on.
[10] abbreviates: 15 mg/kg s.c., 6-9 h, lights on.
Where [11] appears, read: 15 mg/kg s.c., 9-12 h, lights off.
[12] abbreviates: 50 mg/kg s.c., 0-3 h, lights on.
Setting [13] is: 50 mg/kg s.c., 3-6 h, lights on.
The mark [14] stands for this setting: 50 mg/kg s.c., 6-9 h, lights on.
Where [15] appears, read: 50 mg/kg s.c., 9-12 h, lights off.

Molecules are shown by their SMILES. Where two headings read alike, the source gives them in different places. Marks after values point to notes of the source that are not given here.

As a reminder, the IC50 is the concentration that gives 50% inhibition.

As to `NC(=O)C[S+]([O-])C(c1ccccc1)c1ccccc1` (centres unmarked) [modafanil], the “Ih channel inhibitor or not” value in the experiment on Ih channel is “not to be an Ih channel inhibitor”.
On to `C=CC[C@H](N)c1ccccc1-c1noc2ccccc12.Cl` [Org 34167, (S)-2-(1,2-benzisoxazol-3-yl)-α-2-propenylbenzenemethanamine hydrochloride], for which the “median percentage of time spent in NREM” value in experiment [1] (setting [2]) is 46.4* %; in experiment [1] (setting [3]), 63.5%; in experiment [1] (setting [4]) it was 63.8%; in experiment [1] (setting [5]), 40.9%; in experiment [1] (1 mg/kg i.p., 0-3 h, lights on), 7.6* %; in experiment [1] (1 mg/kg i.p., 3-6 h, lights on) it was 59.1* %. Besides, the “median percentage of time spent in NREM” value in experiment [1] (1 mg/kg i.p., 6-9 h, lights on) is 63.9* %; in experiment [1] (setting [6]) it was 42.1%. Further, the “median percentage of time spent in Sleep” value in experiment [1] (setting [2]) is reported as 54.1* %; in experiment [1] (setting [3]), 80.4%; in experiment [1] (setting [4]), 77.9%; in experiment [1] (setting [5]) it was 47.3%; in experiment [1] (1 mg/kg i.p., 0-3 h, lights on), 7.6* %; in experiment [1] (1 mg/kg i.p., 3-6 h, lights on), 64.2* %. The “median percentage of time spent in Sleep” value is given as 81.2% in experiment [1] (1 mg/kg i.p., 6-9 h, lights on) and 51.8% in experiment [1] (setting [6]). Further, the “median percentage of time spent in Waking” value is reported as 45.9* % in experiment [1] (setting [2]); 19.6% in experiment [1] (setting [3]); 22.1% in experiment [1] (setting [4]); 52.7% in experiment [1] (setting [5]); 92.4* % in experiment [1] (1 mg/kg i.p., 0-3 h, lights on); 35.8* % in experiment [1] (1 mg/kg i.p., 3-6 h, lights on). Moreover, the “median percentage of time spent in Waking” value in experiment [1] (1 mg/kg i.p., 6-9 h, lights on) is 18.8%; in experiment [1] (setting [6]) it was 48.2%. Further, the “effect on waking and sleep compared to placebo” value in experiment [1] (Org 34167 i.p., first 3-6 hours of the session) was “dose dependently increased waking and decreased sleep”. Moreover, the half-maximal inhibitory concentration (IC50) at hHCN1 (voltage step to −80 mV for 1 s, read-out: IC50 μM −80 mV) came to 3.2 µM; at hHCN1 (voltage step to −120 mV for 1 s, read-out: IC50 μM −120 mV) it was 8.6 µM.
Take `COc1cc2c(cc1OC)CC(=O)N(CCCN(C)C[C@H]1Cc3cc(OC)c(OC)cc31)CC2.Cl` [ivabradine, (+)-3-[3-[N-[4,5-dimethoxybenzocyclobutan-1-(S)-ylmethyl]-N-methylamino]propyl]-7,8-dimethoxy-2,3,4,5-tetrahydro-1H-3-benzazepin-2-one hydrochloride]: the “median percentage of time spent in NREM” value is 49.5% in experiment [1] (5 mg/kg s.c., 0-3 h, lights on); 68.9% in experiment [1] (5 mg/kg s.c., 3-6 h, lights on); 56.2% in experiment [1] (5 mg/kg s.c., 6-9 h, lights on); 39.5% in experiment [1] (setting [7]); 53.2% in experiment [1] (setting [8]); 65.8% in experiment [1] (setting [9]). The “median percentage of time spent in NREM” value in experiment [1] (setting [10]) was 60.0%; in experiment [1] (setting [11]), 37.4%; in experiment [1] (setting [12]), 41.4%; in experiment [1] (setting [13]), 63.2%; in experiment [1] (setting [14]), 65.0%; in experiment [1] (setting [15]) it was 45.8* %. Also, the “median percentage of time spent in Sleep” value in experiment [1] (5 mg/kg s.c., 0-3 h, lights on) was 58.2%; in experiment [1] (5 mg/kg s.c., 3-6 h, lights on), 84.8%; in experiment [1] (5 mg/kg s.c., 6-9 h, lights on) it was 72.9%; in experiment [1] (setting [7]), 50.4%; in experiment [1] (setting [8]), 60.1* %; in experiment [1] (setting [9]), 83.0%. The “median percentage of time spent in Sleep” value is on record as 72.5% in experiment [1] (setting [10]); 45.2% in experiment [1] (setting [11]); 42.2* % in experiment [1] (setting [12]); 80.4% in experiment [1] (setting [13]); 81.0% in experiment [1] (setting [14]); 57.9* % in experiment [1] (setting [15]). The “median percentage of time spent in Waking” value is on record as 41.8% in experiment [1] (5 mg/kg s.c., 0-3 h, lights on); 15.2% in experiment [1] (5 mg/kg s.c., 3-6 h, lights on); 27.1% in experiment [1] (5 mg/kg s.c., 6-9 h, lights on); 49.6% in experiment [1] (setting [7]); 39.9* % in experiment [1] (setting [8]); 17.0% in experiment [1] (setting [9]). Besides, the “median percentage of time spent in Waking” value is recorded as 27.5% in experiment [1] (setting [10]); 54.8% in experiment [1] (setting [11]); 57.8* % in experiment [1] (setting [12]); 19.6% in experiment [1] (setting [13]); 19.0% in experiment [1] (setting [14]); 42.1* % in experiment [1] (setting [15]). In addition, the “effect on waking and sleep compared to placebo” value in experiment [1] (ivabradine s.c., first 3 hours of the session) is “dose dependently increased waking and decreased sleep”.

These data come from US20110092486A1, “IH CHANNEL INHIBITORS FOR THE PROMOTION OF WAKEFULNESS” (priority 2006, published 2011).
